Laboratory results: US20240384268A1, “Oligonucleotides” (Hudson Institute of Medical Research, priority 2021, published 2024)
In the oligonucleotide strings, read from the 5' end, every base follows the letter of its sugar. An asterisk marks phosphorothioate; unmarked linkages are phosphodiester. Other units and linkages are bracketed, terminal groups are in braces. A string of capitals states the bases alone. d = 2'-deoxy (DNA); m = 2'-O-methyl

Target: T1, TLR8 (Homo sapiens, UniProt Q9NR97)
T1 sequence (Q9NR97 27-1041): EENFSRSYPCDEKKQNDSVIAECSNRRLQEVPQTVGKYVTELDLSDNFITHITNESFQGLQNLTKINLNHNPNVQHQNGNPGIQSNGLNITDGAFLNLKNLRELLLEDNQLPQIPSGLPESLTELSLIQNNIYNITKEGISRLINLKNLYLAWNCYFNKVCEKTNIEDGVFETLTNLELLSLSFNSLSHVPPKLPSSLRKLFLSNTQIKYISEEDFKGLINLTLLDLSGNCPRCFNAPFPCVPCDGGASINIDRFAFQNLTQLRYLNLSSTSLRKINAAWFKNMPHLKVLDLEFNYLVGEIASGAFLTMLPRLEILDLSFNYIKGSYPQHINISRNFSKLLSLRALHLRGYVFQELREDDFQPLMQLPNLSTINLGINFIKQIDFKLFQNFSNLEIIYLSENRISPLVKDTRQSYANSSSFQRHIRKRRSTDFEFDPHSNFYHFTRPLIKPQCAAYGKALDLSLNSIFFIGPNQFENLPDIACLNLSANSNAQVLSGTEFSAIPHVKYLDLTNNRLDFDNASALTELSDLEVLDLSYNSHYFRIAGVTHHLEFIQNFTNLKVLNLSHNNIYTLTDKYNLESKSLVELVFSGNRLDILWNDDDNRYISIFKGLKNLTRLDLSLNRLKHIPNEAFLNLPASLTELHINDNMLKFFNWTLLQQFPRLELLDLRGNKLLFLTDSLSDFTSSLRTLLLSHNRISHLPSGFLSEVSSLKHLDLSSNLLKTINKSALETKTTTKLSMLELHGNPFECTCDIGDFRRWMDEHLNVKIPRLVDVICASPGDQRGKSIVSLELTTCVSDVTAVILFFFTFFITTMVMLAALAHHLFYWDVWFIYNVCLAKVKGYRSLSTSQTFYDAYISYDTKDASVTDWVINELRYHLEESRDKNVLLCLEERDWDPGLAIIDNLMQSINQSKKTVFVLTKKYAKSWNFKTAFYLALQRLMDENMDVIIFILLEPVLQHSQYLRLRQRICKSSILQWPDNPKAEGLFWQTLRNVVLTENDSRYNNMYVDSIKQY
Assay: HEK-TLR8 NF-κB-luciferase reporter, R848 or Motolimod stimulation (potentiation or inhibition)
Assay type: cell-based
Parameters: expressed in transfected cells; host or cells: 293XLhTLR8 (HEK293)
Details: for TLR8-500 nM: averaged NF-κB-Luciferase relative to R848: HEK-TLR8, 500 nM ASO, fold increase relative to R848 without ASO (Alharbi et al., 2020); for TLR8 100 nM: MOE-modified ASO at 100 nM; for TLR8 100 nM / TLR8 500 nM: averaged NF-κB-Luciferase relative to R848 condition (fold increase); for TLR8 500 nM: MOE-modified ASO at 500 nM

| Substance | TLR8-500 nM: averaged NF-κB-Luciferase relative to R848 [fold] | TLR8 100 nM | TLR8 500 nM |
| --- | --- | --- | --- |
| mA*mC*mC*mC*mU*T*C*T*C*T*C*T*G*G*T*mC*mC*mC*mA*mU (mA*mC*mC*mC*mU*dT*dC*dT*dC*dT*dC*dT*dG*dG*dT*mC*mC*mC*mA*mU; antisense) [[LINC-PINT]115] | 7.57 |  |  |
| mA*mG*mC*mC*mG*A*A*C*A*G*A*A*G*G*A*mG*mC*mG*mU*mC (AGCCGAACAGAAGGAGCGUC; sugars from the 5' end m5 d10 m5, all phosphorothioate, methylation of C not given here) [[LINC-PINT]587 KL] | 3.73 |  |  |
| mA*mG*mA*mU*mU*A*T*C*T*T*C*T*T*T*T*mA*mA*mU*mU*mU (AGAUUATCTTCTTTTAAUUU; sugars from the 5' end m5 d10 m5, all phosphorothioate, methylation of C not given here) [[CDKN2B-AS1]2130] | 6.26 |  |  |
| mG*mA*mA*mA*mA*G*A*T*T*A*T*C*T*T*C*mU*mU*mU*mU*mA (GAAAAGATTATCTTCUUUUA; sugars from the 5' end m5 d10 m5, all phosphorothioate, methylation of C not given here) [[CDKN2B-AS1]2134] | 1.87 |  |  |
| GCCCATCCATGAGGTCCTGG (antisense; 2'-MOE modified, pattern not given here) [CTNN2B-2545 MOE] |  | 0.899 | 0.541 |
| mA*mA*mA*mA*mG*A*T*T*A*T*C*T*T*C*T*mU*mU*mU*mA*mA (AAAAGATTATCTTCTUUUAA; sugars from the 5' end m5 d10 m5, all phosphorothioate, methylation of C not given here) [[CDKN2B-AS1]2133] | 4.68 |  |  |
| AGTCGTAGTTGCTTCCTAAC (antisense; 2'-MOE modified, pattern not given here) [MB21D1-1181 MOE] |  | 3.091 | 5.889 |
| mG*mU*mC*mA*mA*A*C*C*T*A*G*A*A*A*G*mA*mA*mG*mC*mA (mG*mU*mC*mA*mA*dA*dC*dC*dT*dA*dG*dA*dA*dA*dG*mA*mA*mG*mC*mA; antisense) [[CDKN2B-AS1]1528] | 1.85 |  |  |
| mC*mC*mA*mU*mG*T*C*C*C*A*G*G*C*C*T*mC*mC*mA*mG*mU (CCAUGTCCCAGGCCTCCAGU; sugars from the 5' end m5 d10 m5, all phosphorothioate, methylation of C not given here) [[CDKN2B-AS1]2227] | 1.46 |  |  |
| mU*mG*mA*mC*mA*T*T*T*C*G*T*G*G*C*T*mC*mC*mU*mA*mC (mU*mG*mA*mC*mA*dT*dT*dT*dC*dG*dT*dG*dG*dC*dT*mC*mC*mU*mA*mC; antisense) [[LINC-PINT]523 KL] | 4.34 |  |  |
| mU*mU*mA*mA*mA*T*A*A*T*C*T*A*G*T*T*mU*mG*mA*mA*mG (UUAAATAATCTAGTTUGAAG; sugars from the 5' end m5 d10 m5, all phosphorothioate, methylation of C not given here) [[CDKN2B-AS1]132] | 6.43 |  |  |
| mG*mA*mU*mG*mG*T*T*C*C*A*G*T*C*C*C*mU*mC*mU*mU*mC (GAUGGTTCCAGTCCCUCUUC; antisense; sugars from the 5' end m5 d10 m5, all phosphorothioate, methylation of C not given here) [[LINC-PINT]1497.1] | 1.01 |  |  |
| mU*mG*mG*mC*mG*T*A*G*T*T*T*C*T*C*T*mU*mC*mC*mU*mC (mU*mG*mG*mC*mG*dT*dA*dG*dT*dT*dT*dC*dT*dC*dT*mU*mC*mC*mU*mC; antisense) [[LINC-PINT]937.1] | 4.25 |  |  |
| mG*mU*mC*mU*mC*C*T*C*C*A*C*A*C*C*C*mU*mU*mC*mU*mC (mG*mU*mC*mU*mC*dC*dT*dC*dC*dA*dC*dA*dC*dC*dC*mU*mU*mC*mU*mC; antisense) [[LINC-PINT]126] | 7.17 |  |  |
| mU*mC*mU*mC*mU*G*G*T*C*C*C*A*T*C*C*mC*mU*mU*mC*mU (UCUCUGGTCCCATCCCUUCU; antisense; sugars from the 5' end m5 d10 m5, all phosphorothioate, methylation of C not given here) [[LINC-PINT]108] | 11.42 |  |  |
| TGGGCTGGAATCCGAGTTAT (antisense; 2'-MOE modified, pattern not given here) [EGFR-4705 MOE] |  | 1.452 | 2.058 |
| mC*mA*mA*mG*mC*C*C*C*A*G*C*G*T*T*C*mC*mU*mC*mC*mG (mC*mA*mA*mG*mC*dC*dC*dC*dA*dG*dC*dG*dT*dT*dC*mC*mU*mC*mC*mG; antisense) [[LINC-PINT]83.1] | 4.44 |  |  |
| mC*mA*mC*mU*mG*T*A*T*T*T*T*A*T*T*A*mC*mA*mG*mA*mA (mC*mA*mC*mU*mG*dT*dA*dT*dT*dT*dT*dA*dT*dT*dA*mC*mA*mG*mA*mA; antisense) [[LINC-PINT]2990] | 4.86 |  |  |
| mC*mA*mG*mG*mC*C*T*C*C*A*G*T*G*T*C*mU*mU*mC*mU*mC (mC*mA*mG*mG*mC*dC*dT*dC*dC*dA*dG*dT*dG*dT*dC*mU*mU*mC*mU*mC; antisense) [[CDKN2B-AS1]2219] | 3.89 |  |  |
| mU*mG*mU*mU*mU*C*C*C*C*G*G*A*G*A*G*mC*mA*mA*mU*mG (UGUUUCCCCGGAGAGCAAUG; antisense; sugars from the 5' end m5 d10 m5, all phosphorothioate, methylation of C not given here) [[LINC-PINT]501 KL] | 2.04 |  |  |
| mU*mU*mG*mU*mG*A*A*A*A*G*A*T*T*A*T*mC*mU*mU*mC*mU (mU*mU*mG*mU*mG*dA*dA*dA*dA*dG*dA*dT*dT*dA*dT*mC*mU*mU*mC*mU) [[CDKN2B-AS1]2138] | 1.94 |  |  |
| mA*mG*mA*mA*mA*G*A*A*G*C*A*A*A*G*A*mU*mU*mC*mA*mA (AGAAAGAAGCAAAGAUUCAA; sugars from the 5' end m5 d10 m5, all phosphorothioate, methylation of C not given here) [[CDKN2B-AS1]1519] | 2.78 |  |  |
| mA*mA*mU*mA*mU*C*T*G*C*T*G*C*C*C*A*mC*mC*mU*mU*mC (mA*mA*mU*mA*mU*dC*dT*dG*dC*dT*dG*dC*dC*dC*dA*mC*mC*mU*mU*mC; antisense) [[CDKN2B-AS1]832] | 4.45 |  |  |
| mG*mG*mA*mU*mU*A*A*A*A*C*A*G*A*T*T*mA*mA*mU*mA*mC (GGAUUAAAACAGATTAAUAC; sugars from the 5' end m5 d10 m5, all phosphorothioate, methylation of C not given here) [[CDKN2B-AS1]1774] | 1.67 |  |  |
| mC*mC*mC*mU*mA*A*T*G*C*T*T*T*C*C*T*mC*mU*mC*mC*mA (mC*mC*mC*mU*mA*dA*dT*dG*dC*dT*dT*dT*dC*dC*dT*mC*mU*mC*mC*mA; antisense) [[LINC-PINT1877 KL] | 8.39 |  |  |
| GCTGACAAAGATTCACTGGT (antisense; 2'-MOE modified, pattern not given here) [HPRT-1353 MOE] |  | 1.475 | 3.067 |
